Legend:
[1] = test system: scopolamine-stimulated locomotion; experiment: scopolamine-stimulated locomotion in rats (60 min activity counts); format: in vivo, rat; details: for antagonism of scopolamine-stimulated locomotion: 0.03-1 mg/kg
Procedure: Cholinergic deficiency states include various neurodegenerative diseases such as Alzheimer's disease, Dementia with Lewy Bodies, Charles Bonnet Syndrome, delirium and Parkinson's disease. Experimental Procedure. All procedures were conducted in normal white light conditions. Rats (1 per box) were first acclimated to test boxes (45×22×20 cm; clear polycarbonate with a plastic top) for 90 minutes. […] Testing commenced immediately. […] Each interruption of a photoelectric light beam was recorded as a single activity count by a microprocessor-based control system. Testing took place between 10:00 a.m. and 5:00 p.m., with all groups counterbalanced for time of testing. The experimenter was blind to treatment group during the experiment.

[2] = test system: social memory; experiment: social memory test in mice (duration of social interaction, baseline vs retest); format: in vivo; details: 0.1 and 1 mg/kg
Procedure: Male CD-1 mice (30-35 grams) were first acclimated to the test room for approximately 1 hour. […] For the baseline test, unfamiliar pairs of mice were placed into a test chamber (plexiglas mouse cage with sawdust bedding). The duration of social interaction of the two mice (sniffing, anogenital exploration, nosing, grooming, licking, pawing, playing copulatory attempts) was observed and recorded for a period of five minutes and was registered cumulatively as total seconds of contact. Twenty-four hours later, the animals were given a retest without any drug treatment. At the retest, the now familiar partners from the baseline test were placed into the test chamber for a second confrontation and the duration of social interaction was again measured. Social memory was defined as a significant decrease in duration of social contact from baseline to retest. Testing took place in normal white light conditions between the hours of 8:30 am and 3:00 pm. The experimenter was blind to the treatment group until the completion of the experiment. The results represent combined data (n=36 per group total) from two studies. Data were analyzed using the Mann-Whitney test.

| Compound | antagonism of scopolamine-stimulated locomotion [1] | Group mean of 60 min activity count totals ([1]; M100907 0.03 + SCOP 0.75, intraperitoneal, n=6) | Group mean of 60 min activity count totals ([1]; M100907 0.1 + SCOP 0.75, intraperitoneal, n=6) | Group mean of 60 min activity count totals ([1]; M100907 0.3 + SCOP 0.75, intraperitoneal, n=6) | Group mean of 60 min activity count totals ([1]; M100907 1 + SCOP 0.75, intraperitoneal, n=6) | effect on social memory [2] | Group mean of 60 min activity count totals ([1]; risperidone 0.03 + SCOP 0.75, intraperitoneal, n=8) | Group mean of 60 min activity count totals ([1]; risperidone 0.1 + SCOP 0.75, intraperitoneal, n=8) | Group mean of 60 min activity count totals ([1]; risperidone 0.3 + SCOP 0.75, intraperitoneal, n=8) | Group mean of 60 min activity count totals ([1]; risperidone 1 + SCOP 0.75, intraperitoneal, n=8) | activity level relative to baseline (vehicle) level ([1]; risperidone at the two higher doses + scopolamine) |
| --- | --- | --- | --- | --- | --- | --- | --- | --- | --- | --- | --- |
| COc1cccc([C@H](O)C2CCN(CCc3ccc(F)cc3)CC2)c1OC [M100907, (+)-isomer of α-(2,3-dimethoxyphenyl)-1-[2-(4-fluorophenyl)ethyl]-4-piperidinemethanol] | significantly antagonized | 3181 | 2378 | 2087 | 2231 | significantly enhanced |  |  |  |  |  |
| Cc1nc2n(c(=O)c1CCN1CCC(c3noc4cc(F)ccc34)CC1)CCCC2 [risperidone] | significantly antagonized |  |  |  |  |  | 4615 | 4037 | 1795 | 772 | reduced activity below baseline level |
